How the values were obtained:
Assay type in all cases: cell-based, human
[1] = tested on: SW480 colon cancer cells; assay: Propidium iodide / BrdU cell cycle analysis of synchronized cells
Protocol: Cell synchronization. Synchronized cells were synchronized by double thymidine block. Cells were treated with […] thymidine for sixteen hours. The drug was removed and replaced by complete growth media for eight hours. Cells were treated for the second time with […] thymidine for sixteen hours. At this point, cells were treated and harvested.
Propidium iodide and BrdU flow cytometry assay. Cells were seeded at a density of 5×10^5 in a 6-well plate and treated for forty-eight to seventy-two hours. After treatment, floating cells were collected, and adherent cells were trypsinized, pelleted, washed with phosphate-buffered saline, and fixed in 70% ethanol overnight. For propidium iodide (PI) based Sub-G1 apoptosis analysis, cells were spun down after fixation and resuspended in phosphate-citric acid buffer (0.2M Na2HPO4+0.1M Citric Acid, pH 7.8) at room temperature for five minutes. The cell pellet was resuspended for staining with 50 μg/mL PI and 250 μg/mL ribonuclease (RNase A). For BrdU analysis, after cell fixation, cells were spun down and resuspended in one mL of 2N HCL with 0.5% Triton X-100 for thirty minutes at room temperature. Cells were pelleted, washed with phosphate-buffered saline, and resuspended in 20 μL BrdU antibody (BD Biosciences, cat no. 347580) diluted in 0.5% Tween 20/PBS/5% bovine serum albumin for thirty minutes at room temperature. Cells were then spun down and resuspended in 140 μg/mL goat-anti mouse Alexa Fluor 488 (#A-11008, Thermo Fisher Scientific, Waltham, Mass., USA) in 0.5% Tween 20 in phosphate-buffered saline/5% bovine serum albumin for thirty minutes at room temperature. Cells were then spun down and resuspended in 5 μg/mL PI: 250 μg/mL RNase A solution. Samples were analyzed on an Epics Elite Epics flow cytometer (Coulter-Beckman).
BrdU analysis gating. Cell aggregates were gated out in the PI Peak vs DNA PI histogram. BrdU lower limit intensity was set on the upper limit of the negative control. The no BrdU antibody assays and no goat-anti mouse Alexa Fluor 488 antibody assays were the negative controls. […] Gating was held constant throughout the samples within a given assay.

[2] = tested on: colorectal cancer patient-derived organoid; assay: Cytotoxicity and immunofluorescence in patient-derived organoid; settings: for cleaved caspase-3 staining (apoptotic cells): IC50 doses; for ethidium homodimer staining (dead cells): compared to vehicle control
Protocol: CellTiter-Glo® luminescent cell viability assay. Cells were seeded in 96-well plates at a density of 5×10^3 cells per well. 20 μL of CellTiter-Glo® Reagent was added directly to the wells, following the manufacturers protocol. The bioluminescence signal was determined using an IVIS imaging system, optionally at a period of 48-72 hours after treatment.
Immunohistochemistry. 30,000 cells/well were seeded in 8-chamber slides. Cells were washed with phosphate-buffered saline at the harvesting time point and fixed with 4% parafornaldehyde for 25 minutes. Cells were then washed with phosphate-buffered saline and permeabilized with 0.2% Triton X-100 for 5-10 minutes. Cells were then washed with phosphate-buffered saline and incubated overnight 1:100 with the primary antibody Cyt-C (#sc-13560, Santa Cruz Biotechnology, Santa Cruz, Calif., USA), Tom-20 (#42406), commercially available from Cell Signaling Technology, Inc., Danvers, Mass. USA), cells were washed with phosphate-buffered saline and incubated with secondary antibody 1:200 goat-anti mouse Alexa Fluor 488 (#A-11008, Thermo Fisher Scientific, Waltham, Mass., USA) and Cy3 AffiniPure Donkey anti-rabbit (#711-165-152, Jackson ImmunoResearch, West Grove, Pa., USA) for one hour followed by phosphate-buffered saline washing, 1:400 Dapi staining, washed with phosphate-buffered saline, and imaged. Organoid viability imaging was determined by CellTrace™ Calcein Green (#C34852, Thermo Fisher Scientific, Waltham, Mass., USA), Ethidium Homodimer-1 (#E1169, Thermo Fisher Scientific, Waltham, Mass., USA), Ki67 incubated at 37° C. for one hour then washed with phosphate-buffered saline and imaged. Imaging was done using a Leica Confocal Microscope.

[3] = tested on: SW480 tumor cells; assay: Apoptosis markers (cleaved PARP immunoblot, Cyt-C immunofluorescence)
Protocol: Knockdown expression of p73, DR5, ATG5, or FADD using siRNA. A total of 1×10^5 cells/well were plated per well in a 12-well plate in medium with 10% FBS without antibiotic. Forward transfection of p73 siRNA (s14319, Ambion®, Ambion Inc., Austin, Tex., USA), DR5 (sc-40237, Santa Cruz Biotechnology), atg5 (137766, Ambion®, Ambion Inc., Austin, Tex., USA), or FADD (S16706, Ambion®, Ambion Inc., Austin, Tex., USA) was performed using the Lipofectamine® RNAiMAX Transfection Reagent (Life Technologies) and incubated for forty-eight hours before treatment, e.g., before drug treatments.
Immunoblotting (additional method). After treatment, floating cells were collected, and adherent cells were trypsinized, washed with phosphate-buffered saline, and lysed with RIPA buffer (Sigma-Aldrich, St. Louis, Mo., USA) for thirty minutes to one hour at 4° C. Protein lysates were pelleted. The supernatant was collected. Total protein per sample was determined using a Pierce™ BCA Protein Assay Kit (Thermo Fisher Scientific, Waltham, Mass., USA). Proteins were denatured using 1× NuPAGE® LDS sample buffer (Thermo Fisher Scientific, Waltham, Mass., USA) and reduced with 2-mercaptoethanol (Sigma-Aldrich, St. Louis, Mo., USA). Protein lysates were boiled for fifteen min at 95° C. After protein normalization, samples were loaded into NuPAGE™ Novex™ 4-12% Bis-Tris Protein Gels (Thermo Fisher Scientific, Waltham, Mass., USA). Gel electrophoresis was performed with NuPAGE™ MES SDS Running Buffer. […] Signal was detected using a chemiluminescent detection kit, followed by autoradiography. […]
Immunohistochemistry. […] Organoid viability imaging was determined by CellTrace™ Calcein Green (#C34852, Thermo Fisher Scientific, Waltham, Mass., USA), Ethidium Homodimer-1 (#E1169, Thermo Fisher Scientific, Waltham, Mass., USA), Ki67 incubated at 37° C. for one hour then washed with phosphate-buffered saline and imaged. […]

SMILES: Cn1c(=O)c2[nH]c(Nc3ccccc3)nc2n(C)c1=O [CB002]
- S-phase delay, difference ([1]; six-eight hours of treatment, combined with etoposide): 2 fold
- cleaved caspase-3 staining (apoptotic cells) [2]: increases apoptotic cells
- ethidium homodimer staining (dead cells) [2]: increase of ethidium homodimer staining

SMILES: Cn1c(=O)c2[nH]c(Nc3cccc(C(F)(F)F)c3)nc2n(C)c1=O [CB002-analog #4]
- cleaved-PARP ([3]; SW480): increases cleaved-PARP
- cytochrome C release from the mitochondria to the cytosol ([3]; SW480, forty-eight hours): cytochrome C release from the mitochondria to the cytosol
- PARP cleavage under p73 knockdown ([3]; SW480, p73 siRNA): PARP cleavage occurred despite effective p73 knockdown
- S-phase accumulation ([1]; eight hours following release from synchronization): S-phase accumulation
- increase of cells in S-phase ([1]; twelve hours, PI and BrdU co-staining, compared to DMSO vehicle control): 30%
- G2-phase cells versus etoposide ([1]; twenty-four hours): no significant differences
- organoid size (calcein staining) [2]: smaller in size
- cleaved caspase-3 staining (apoptotic cells) [2]: increases apoptotic cells
- ethidium homodimer staining (dead cells) [2]: increase of ethidium homodimer staining
- Ki-67 staining (proliferating cells) ([2]; seventy-two hours, dose-dependent): decreases the population of proliferating cells
- cytotoxicity (cell viability response curve) ([2]; versus CB002 parent compound): enhances cytotoxicity compared to the CB002 parent compound

— patent US20230219957A1, “SMALL MOLECULE CB002-ANALOGES RESTORE THE P53 PATHWAY AND TARGET S-PHASE CHECKPOINT” (Brown University, priority 2020, published 2023)
